{
  "source": "patent US10858355B2",
  "about": "“Inhibitors of phosphatidylinositol 3-kinase gamma” (AstraZeneca AB, priority 2016, dated 2020)",
  "data": [
    {"biological_target": "recombinant human PI3Kγ (aa144-1102)-6His (Homo sapiens (Human), UniProt P48736)", "sequence (P48736 144-1102)": "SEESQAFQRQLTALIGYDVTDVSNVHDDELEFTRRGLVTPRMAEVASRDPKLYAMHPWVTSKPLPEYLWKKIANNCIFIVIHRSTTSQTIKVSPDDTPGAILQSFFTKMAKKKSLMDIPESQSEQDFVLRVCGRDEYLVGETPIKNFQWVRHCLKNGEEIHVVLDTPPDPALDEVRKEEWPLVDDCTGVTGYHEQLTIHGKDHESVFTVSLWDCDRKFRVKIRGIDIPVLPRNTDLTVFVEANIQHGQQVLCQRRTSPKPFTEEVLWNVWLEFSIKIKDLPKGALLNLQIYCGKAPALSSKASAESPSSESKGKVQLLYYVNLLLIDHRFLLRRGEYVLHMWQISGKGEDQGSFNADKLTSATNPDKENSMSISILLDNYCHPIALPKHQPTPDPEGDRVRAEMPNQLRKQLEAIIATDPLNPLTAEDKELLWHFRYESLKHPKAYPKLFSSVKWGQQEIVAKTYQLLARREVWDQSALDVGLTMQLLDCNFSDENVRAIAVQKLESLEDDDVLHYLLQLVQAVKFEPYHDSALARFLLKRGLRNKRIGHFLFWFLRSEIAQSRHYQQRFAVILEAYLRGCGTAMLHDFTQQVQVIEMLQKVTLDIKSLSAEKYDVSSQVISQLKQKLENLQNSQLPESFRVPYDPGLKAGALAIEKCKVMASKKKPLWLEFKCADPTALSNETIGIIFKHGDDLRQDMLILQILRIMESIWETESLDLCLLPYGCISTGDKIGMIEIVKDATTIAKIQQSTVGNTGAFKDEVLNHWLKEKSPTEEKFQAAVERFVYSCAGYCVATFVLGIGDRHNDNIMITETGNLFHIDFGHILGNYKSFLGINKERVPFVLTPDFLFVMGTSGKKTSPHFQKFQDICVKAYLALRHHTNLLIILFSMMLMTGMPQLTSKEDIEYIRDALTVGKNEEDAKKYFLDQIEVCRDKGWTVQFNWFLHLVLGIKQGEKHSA", "test": "Test A: Enzymatic Activity Assay for Rec Human PI3Kγ (ADP-Glo)", "assay_type": "biochemical", "details": "20 μM ATP, 80 μM DiC8-PIP2, 1.2 nM PI3Kγ, 15 min pre-incubation, 60 min reaction", "description": "(§1) Pharmacological Activity Test A: Enzymatic Activity Assay for Rec Human PI3Kγ\n(§2) The activity of recombinant human PI3Kγ (aa144-1102)-6His was determined by measuring the ADP level after phosphorylation of DiC8-PIP2 using a commercially available ADP-Glo™ kit from Promega. The assay was carried out in white low volume 384 well plates in a final volume of 14 μl at rt. The assay conditions contained the following: 50 mM Tris buffer pH 7.4, 2.1 mM DTT, 3 mM MgCl2, 0.05% CHAPS, 20 μM ATP, 80 μM DiC8-PIP2 and 1.2 nM PI3Kγ. […] Routinely, inhibitors were pre-incubated with 3 μl of PI3Kγ for 15 min prior to the addition of […] substrate mixture for a further 60 min enzyme reaction. The phosphorylation was stopped with the addition of 3 μl ADP-Glo™ reagent (stop solution) followed by a 40 min incubation. Prior to detection 6 μl of ADP-Glo™ Kinase Detection Reagent was added and the plates were read in a micro plate reader using a Luminescence filter.", "values": [
      {"smiles": "CC(=O)Nc1ncc(-c2cc3c(c(S(C)(=O)=O)c2)C(=O)N([C@@H](C)C2CC2)C3)s1", "note": "[Example 2, N-(5-{2-[(1S)-1-Cyclopropylethyl]-7-(methylsulfonyl)-1-oxo-2,3-dihydro-1H-isoindol-5-yl}-1,3-thiazol-2-yl)acetamide]", "PI3Kγ activity, pIC50": 9.0},
      {"smiles": "CC(=O)Nc1nc(C)c(-c2cc3c(c(S(C)(=O)=O)c2)C(=O)N(C(C)C)C3)s1", "note": "[Example 3, N-{4-Methyl-5-[7-(methylsulfonyl)-1-oxo-2-(propan-2-yl)-2,3-dihydro-1H-isoindol-5-yl]-1,3-thiazol-2-yl}acetamide]", "PI3Kγ activity, pIC50": 8.8},
      {"smiles": "CC(=O)Nc1nc(C)c(-c2cc3c(c(NC(C)=O)c2)C(=O)N([C@@H](C)C2CC2)C3)s1", "note": "[Example 5, N-(5-{7-(Acetylamino)-2-[(1S)-1-cyclopropylethyl]-1-oxo-2,3-dihydro-1H-isoindol-5-yl}-4-methyl-1,3-thiazol-2-yl)acetamide]", "PI3Kγ activity, pIC50": 9.0},
      {"smiles": "CC(=O)Nc1nc(C)c(-c2cc3c(c(S(=O)(=O)N(C)C)c2)C(=O)N([C@@H](C)C2CC2)C3)s1", "note": "[Example 7, N-(5-{2-[(1S)-1-Cyclopropylethyl]-7-(dimethylsulfamoyl)-1-oxo-2,3-dihydro-1H-isoindol-5-yl}-4-methyl-1,3-thiazol-2-yl)acetamide]", "PI3Kγ activity, pIC50": 9.1},
      {"smiles": "CNS(=O)(=O)c1cc(-c2cnc(NC(C)=O)s2)cc2c1C(=O)N([C@@H](C)C1CC1)C2", "note": "[Example 8, N-(5-{2-[(1S)-1-Cyclopropylethyl]-7-(methylsulfamoyl)-1-oxo-2,3-dihydro-1H-isoindol-5-yl}-1,3-thiazol-2-yl)acetamide]", "PI3Kγ activity, pIC50": 9.0},
      {"smiles": "CC(=O)Nc1nc(C)c(-c2cc3c(c(S(=O)(=O)NC4CCC4)c2)C(=O)N([C@@H](C)C2CC2)C3)s1", "note": "[Example 10, N-(5-{7-(Cyclobutylsulfamoyl)-2-[(1S)-1-cyclopropylethyl]-1-oxo-2,3-dihydro-1H-isoindol-5-yl}-4-methyl-1,3-thiazol-2-yl)acetamide]", "PI3Kγ activity, pIC50": 8.9},
      {"smiles": "CNS(=O)(=O)c1cc(-c2sc(NC(C)=O)nc2C)cc2c1C(=O)N(C(C)C)C2", "note": "[Example 11, N-{4-Methyl-5-[7-(methylsulfamoyl)-1-oxo-2-(propan-2-yl)-2,3-dihydro-1H-isoindol-5-yl]-1,3-thiazol-2-yl}acetamide]", "PI3Kγ activity, pIC50": 8.8},
      {"smiles": "CC(=O)Nc1nc(C)c(-c2cc3c(c(S(=O)(=O)NCC4CC4)c2)C(=O)N([C@@H](C)C2CC2)C3)s1", "note": "[Example 13, N-(5-{2-[(1S)-1-Cyclopropylethyl]-7-[(cyclopropylmethyl)sulfamoyl]-1-oxo-2,3-dihydro-1H-isoindol-5-yl}-4-methyl-1,3-thiazol-2-yl)acetamide]", "PI3Kγ activity, pIC50": 9.0},
      {"smiles": "CC(=O)Nc1nc(C)c(-c2cc3c(c(S(=O)(=O)NC4CC4)c2)C(=O)N([C@@H](C)C2CC2)C3)s1", "note": "[Example 14, N-(5-{2-[(1S)-1-Cyclopropylethyl]-7-(cyclopropylsulfamoyl)-1-oxo-2,3-dihydro-1H-isoindol-5-yl}-4-methyl-1,3-thiazol-2-yl)acetamide]", "PI3Kγ activity, pIC50": 9.0},
      {"smiles": "CCNS(=O)(=O)c1cc(-c2sc(NC(C)=O)nc2C)cc2c1C(=O)N([C@@H](C)C1CC1)C2", "note": "[Example 15, N-(5-{2-[(1S)-1-Cyclopropylethyl]-7-(ethylsulfamoyl)-1-oxo-2,3-dihydro-1H-isoindol-5-yl}-4-methyl-1,3-thiazol-2-yl)acetamide]", "PI3Kγ activity, pIC50": 9.4},
      {"smiles": "CC(=O)Nc1nc(C)c(-c2cc3c(c(S(=O)(=O)NC4COC4)c2)C(=O)N([C@@H](C)C2CC2)C3)s1", "note": "[Example 16, N-(5-{2-[(1S)-1-Cyclopropylethyl]-7-(oxetan-3-ylsulfamoyl)-1-oxo-2,3-dihydro-1H-isoindol-5-yl}-4-methyl-1,3-thiazol-2-yl)acetamide]", "PI3Kγ activity, pIC50": 9.2},
      {"smiles": "CC(=O)Nc1nc(C)c(-c2cc3c(c(S(=O)(=O)NC4CC(F)(F)C4)c2)C(=O)N([C@@H](C)C2CC2)C3)s1", "note": "[Example 17, N-(5-{2-[(1S)-1-Cyclopropylethyl]-7-[(3,3-difluorocyclobutyl)sulfamoyl]-1-oxo-2,3-dihydro-1H-isoindol-5-yl}-4-methyl-1,3-thiazol-2-yl)acetamide]", "PI3Kγ activity, pIC50": 8.9},
      {"smiles": "CC(=O)Nc1nc(C)c(-c2cc3c(c(S(=O)(=O)NCC(F)(F)F)c2)C(=O)N([C@@H](C)C2CC2)C3)s1", "note": "[Example 20, N-(5-{2-[(1S)-1-Cyclopropylethyl]-1-oxo-7-[(2,2,2-trifluoroethyl)sulfamoyl]-2,3-dihydro-1H-isoindol-5-yl}-4-methyl-1,3-thiazol-2-yl)acetamide]", "PI3Kγ activity, pIC50": 9.2},
      {"smiles": "CC(=O)Nc1nc(C)c(-c2cc3c(c(S(N)(=O)=O)c2)C(=O)N(C(C)C)C3)s1", "note": "[Example 21, N-{4-Methyl-5-[1-oxo-2-(propan-2-yl)-7-sulfamoyl-2,3-dihydro-1H-isoindol-5-yl]-1,3-thiazol-2-yl}acetamide]", "PI3Kγ activity, pIC50": 8.9},
      {"smiles": "CC(=O)Nc1nc(C)c(-c2cc3c(c(NS(=O)(=O)C4CC4)c2)C(=O)N([C@@H](C)C2CC2)C3)s1", "note": "[Example 23, N-(5-{2-[(1S)-1-Cyclopropylethyl]-7-[(cyclopropylsulfonyl)amino]-1-oxo-2,3-dihydro-1H-isoindol-5-yl}-4-methyl-1,3-thiazol-2-yl)acetamide]", "PI3Kγ activity, pIC50": 9.2},
      {"smiles": "CCCS(=O)(=O)Nc1cc(-c2sc(NC(C)=O)nc2C)cc2c1C(=O)N([C@@H](C)C1CC1)C2", "note": "[Example 24, N-(5-{2-[(1S)-1-Cyclopropylethyl]-1-oxo-7-[(propylsulfonyl)amino]-2,3-dihydro-1H-isoindol-5-yl}-4-methyl-1,3-thiazol-2-yl)acetamide]", "PI3Kγ activity, pIC50": 9.0},
      {"smiles": "CCS(=O)(=O)Nc1cc(-c2sc(NC(C)=O)nc2C)cc2c1C(=O)N([C@@H](C)C1CC1)C2", "note": "[Example 25, N-(5-{2-[(1S)-1-Cyclopropylethyl]-7-[(ethylsulfonyl)amino]-1-oxo-2,3-dihydro-1H-isoindol-5-yl}-4-methyl-1,3-thiazol-2-yl)acetamide]", "PI3Kγ activity, pIC50": 9.1},
      {"smiles": "CC(=O)Nc1nc(C)c(-c2cc3c(c(NS(=O)(=O)C(C)(C)C)c2)C(=O)N([C@@H](C)C2CC2)C3)s1", "note": "[Example 26, N-(5-{7-[(tert-Butylsulfonyl)amino]-2-[(1S)-1-cyclopropylethyl]-1-oxo-2,3-dihydro-1H-isoindol-5-yl}-4-methyl-1,3-thiazol-2-yl)acetamide]", "PI3Kγ activity, pIC50": 9.0},
      {"smiles": "CC(=O)Nc1nc(C)c(-c2cc3c(c(NS(=O)(=O)CC4CC4)c2)C(=O)N([C@@H](C)C2CC2)C3)s1", "note": "[Example 28, N-[5-(2-[(1S)-1-Cyclopropylethyl]-7-{[(cyclopropylmethyl)sulfonyl]amino}-1-oxo-2,3-dihydro-1H-isoindol-5-yl)-4-methyl-1,3-thiazol-2-yl]acetamide]", "PI3Kγ activity, pIC50": 9.1},
      {"smiles": "CC(=O)Nc1nc(C)c(-c2cc3c(c(NS(=O)(=O)c4cn(C)nc4C)c2)C(=O)N([C@@H](C)C2CC2)C3)s1", "note": "[Example 29, N-[5-(2-[(1S)-1-Cyclopropylethyl]-7-{[(1,3-dimethyl-1H-pyrazol-4-yl)sulfonyl]amino}-1-oxo-2,3-dihydro-1H-isoindol-5-yl)-4-methyl-1,3-thiazol-2-yl]acetamide]", "PI3Kγ activity, pIC50": 8.9},
      {"smiles": "CNS(=O)(=O)c1cc(-c2cnc3c(N)nccn23)cc2c1C(=O)N([C@@H](C)C1CC1)C2", "note": "[Example 31, 6-(8-Aminoimidazo[1,2-a]pyrazin-3-yl)-2-[(1S)-1-cyclopropylethyl]-N-methyl-3-oxo-2,3-dihydro-1H-isoindole-4-sulfonamide]", "PI3Kγ activity, pIC50": 8.7},
      {"smiles": "CNS(=O)(=O)c1cc(-c2sc(NC(C)=O)nc2C)cc2c1C(=O)N(C(C)(C)C1CC1)C2", "note": "[Example 32, N-{5-[2-(2-Cyclopropylpropan-2-yl)-7-(methylsulfamoyl)-1-oxo-2,3-dihydro-1H-isoindol-5-yl]-4-methyl-1,3-thiazol-2-yl}acetamide]", "PI3Kγ activity, pIC50": 9.0}
    ]},
    {"biological_target": "recombinant human PI3Kγ (aa144-1102)-6His (Homo sapiens (Human), UniProt P48736)", "test": "Test A: Enzymatic Activity Assay for Rec Human PI3Kγ (ADP-Glo)", "assay_type": "biochemical", "details": "20 μM ATP, 80 μM DiC8-PIP2, 1.2 nM PI3Kγ, 15 min pre-incubation, 60 min reaction; read-out: PI3Kγ activity, pIC50 (converted)", "description": "as §1, §2", "units": {"IC50": "nM"}, "values": [
      {"smiles": "CC(=O)Nc1ncc(-c2cc3c(c(S(N)(=O)=O)c2)C(=O)N([C@@H](C)C2CC2)C3)s1", "note": "[Example 12, N-(5-{2-[(1S)-1-Cyclopropylethyl]-1-oxo-7-sulfamoyl-2,3-dihydro-1H-isoindol-5-yl}-1,3-thiazol-2-yl)acetamide]", "IC50": 1.26},
      {"smiles": "CC(=O)Nc1nc(C)c(-c2cc3c(c(S(=O)(=O)NCC4(CF)CC4)c2)C(=O)N([C@@H](C)C2CC2)C3)s1", "note": "[Example 19, N-(5-{2-[(1S)-1-Cyclopropylethyl]-7-({[1-(fluoromethyl)cyclopropyl]methyl}sulfamoyl)-1-oxo-2,3-dihydro-1H-isoindol-5-yl}-4-methyl-1,3-thiazol-2-yl)acetamide]", "IC50": 0.398},
      {"smiles": "CC(=O)Nc1ncc(-c2cc3c(c(NS(C)(=O)=O)c2)C(=O)N([C@@H](C)C2CC2)C3)s1", "note": "[Example 22, N-(5-{2-[(1S)-1-Cyclopropylethyl]-7-[(methylsulfonyl)amino]-1-oxo-2,3-dihydro-1H-isoindol-5-yl}-1,3-thiazol-2-yl)acetamide]", "IC50": 0.794},
      {"smiles": "CNS(=O)(=O)c1cc(-c2sc(NC(C)=O)nc2Cl)cc2c1C(=O)N([C@@H](C)C1CC1)C2", "note": "[Example 30, N-(4-Chloro-5-{2-[(1S)-1-cyclopropylethyl]-7-(methylsulfamoyl)-1-oxo-2,3-dihydro-1H-isoindol-5-yl}-1,3-thiazol-2-yl)acetamide]", "IC50": 1.26}
    ]}
  ]
}
